Where two headings read alike, the source gives them in different places.
Target: T1, Flag/GST-tagged recombinant human B-Raf (Homo sapiens, UniProt P15056)
T1 construct: Flag; GST; made in house; host or cells: Sf9 insect cells (B-Raf); E. coli (MEK1-GST)
Assay: B-Raf Kinase to MEK1 ELISA
Type: biochemical
Experimental: B-Raf Kinase to MEK1 ELISA
B-Raf1 Kinase Assay Procedure: B-Raf-1 is used to phosphorylate GST-MEK1.
B-Raf Assay Stock Solutions:
1. Assay Dilution Buffer (ADB): 20 mM MOPS, pH 7.2, 25 mM β-glycerol phosphate, 5 mM EGTA, 1 mM sodium orthovanadate, 1 mM dithiothreitol, 0.01% Triton X-100.
2. Magnesium/ATP Cocktail: ADB solution (minus Triton X-100) plus 200 μM cold ATP and 40 mM magnesium chloride.
4. Active Kinase: Active B-Raf: used at 0.2 nM per assay point.
8. Anti pMEK Ab (Upstate)
9. Anti-rabbit Ab/Europium conjugate (Wallac)
1. Add 25 μl of ADB containing B-Raf and Mek per assay (i.e. per well of a 96 well plate)
2. Add 25 μl of 0.2 mM ATP and 40 mM magnesium chloride in Magnesium/ATP Cocktail.
3. Incubate for 45 minutes at RT with occasional shaking.
4. Transfer this mixture to an anti-GST Ab coated 96 well plate (Nunc Immunosorb plates coated o/n with a-GST. Plate freshly washed 3× with TBS-T before use.
5. Incubate o/n at 30° C. in cold room.
6. Wash 3× with TBST, add Anti-Phospho MEK1 (1:1000, dilution depends upon lot)
7. Incubate for 60 minutes at RT in a shaking incubator
8. Wash 3× with TBST, add Anti-rabbit Ab/Europium conjugate (Wallac) (1:500, dilution depends upon lot)
9. Incubate for 60 minutes at RT on a platform shaker.
10. Wash plate 3× with TBS-T
11. Add 100 μl of Wallac Delfia Enhancement Solution and shake for 10 minutes.
12. Read plates in Wallac Victor model Plate Reader.
13. Collect data analyze in Excel for single point and IC50 determinations.
The % inhibition was determined for each compound concentration.

[1] = phosphorylation of GST-MEK1 by B-Raf (0.2 nM), phospho-MEK1 antibody/Europium readout, compound concentrations from 1 μM to 3 nM or 0.1 μM to 300 pm in half log dilutions, read-out: IC50

T1 sequence (P15056 whole entry): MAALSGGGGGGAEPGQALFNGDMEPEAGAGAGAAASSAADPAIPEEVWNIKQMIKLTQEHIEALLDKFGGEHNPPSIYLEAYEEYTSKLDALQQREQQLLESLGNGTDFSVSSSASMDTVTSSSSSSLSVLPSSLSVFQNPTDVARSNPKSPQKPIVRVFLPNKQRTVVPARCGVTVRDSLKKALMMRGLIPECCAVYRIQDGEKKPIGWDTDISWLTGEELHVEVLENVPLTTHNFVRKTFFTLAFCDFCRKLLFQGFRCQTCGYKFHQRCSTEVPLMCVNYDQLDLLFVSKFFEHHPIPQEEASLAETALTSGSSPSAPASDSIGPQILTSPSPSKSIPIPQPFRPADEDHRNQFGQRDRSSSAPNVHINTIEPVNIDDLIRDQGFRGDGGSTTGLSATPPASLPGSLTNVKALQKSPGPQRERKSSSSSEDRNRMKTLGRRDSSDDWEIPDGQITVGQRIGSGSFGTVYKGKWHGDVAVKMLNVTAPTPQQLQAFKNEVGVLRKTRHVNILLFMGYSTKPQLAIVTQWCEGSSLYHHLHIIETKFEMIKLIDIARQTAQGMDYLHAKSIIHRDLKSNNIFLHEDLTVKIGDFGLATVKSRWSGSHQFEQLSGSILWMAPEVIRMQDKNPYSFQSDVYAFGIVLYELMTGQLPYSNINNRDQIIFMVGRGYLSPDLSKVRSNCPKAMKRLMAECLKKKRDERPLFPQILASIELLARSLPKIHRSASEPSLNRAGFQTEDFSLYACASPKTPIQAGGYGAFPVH

SMILES | IC50 [1] [µM] | IC50 [µM]
N#Cc1cnc2cc(-c3ccncc3)sc2c1-c1cccc(NC(=O)c2cccc(C(F)(F)F)c2)c1 [Compound 5, N-[3-(6-cyano-2-pyridin-4-ylthieno[3,2-b]pyridin-7-yl)phenyl]-3-(trifluoromethyl)benzamide] | 5.94 | 
O=C(Nc1cccc(-c2ncnc3cc(-c4ccncc4)sc23)c1)c1cccc(C(F)(F)F)c1 [Compound 6, N-[3-(6-pyridin-4-ylthieno[3,2-d]pyrimidin-4-yl)phenyl]-3-(trifluoromethyl)benzamide] |  | 0.54
COc1ccc(C(=O)Nc2cccc(-c3c(C#N)cnc4cc(-c5ccncc5)sc34)c2)cc1C(F)(F)F [Compound 7, N-[3-(6-cyano-2-pyridin-4-ylthieno[3,2-b]pyridin-7-yl)phenyl]-4-methoxy-3-(trifluoromethyl)benzamide] |  | 9.6
COc1ccc(C(=O)Nc2cccc(-c3ncnc4sc(-c5ccncc5)cc34)c2)cc1C(F)(F)F [Compound 35, 4-methoxy-N-[3-(6-pyridin-4-ylthieno[2,3-d]pyrimidin-4-yl)phenyl]-3-(trifluoromethyl)benzamide] |  | 3.46
O=C(Nc1cccc(-c2ncnc3sc(-c4ccncc4)cc23)c1)Nc1ccc(F)c(C(F)(F)F)c1 [Compound 36, N-[4-fluoro-3-(trifluoromethyl)phenyl]-N′-[3-(6-pyridin-4-ylthieno[2,3-d]pyrimidin-4-yl)phenyl]urea] |  | 2.34
Cc1ccc(C(=O)Nc2cccc(-c3ncnc4sc(-c5ccncc5)cc34)c2)cc1C(F)(F)F [Compound 37, 4-methyl-N-[3-(6-pyridin-4-ylthieno[2,3-d]pyrimidin-4-yl)phenyl]-3-(trifluoromethyl)benzamide] |  | 2.61
O=C(Nc1cccc(-c2ncnc3sc(-c4ccncc4)cc23)c1)c1ccc(F)c(C(F)(F)F)c1 [Compound 38, 4-fluoro-N-[3-(6-pyridin-4-ylthieno[2,3-d]pyrimidin-4-yl)phenyl]-3-(trifluoromethyl)benzamide] |  | 0.3
O=C(Nc1cccc(-c2ncnc3sc(-c4ccncc4)cc23)c1)Nc1ccc(Cl)c(C(F)(F)F)c1 [Compound 39, N-[4-chloro-3-(trifluoromethyl)phenyl]-N′-[3-(6-pyridin-4-ylthieno[2,3-d]pyrimidin-4-yl)phenyl]urea] |  | 1.4
O=C(Nc1cccc(-c2ncnc3sc(-c4ccncc4)cc23)c1)c1ccc(Cl)c(C(F)(F)F)c1 [Compound 40, 4-chloro-N-[3-(6-pyridin-4-ylthieno[2,3-d]pyrimidin-4-yl)phenyl]-3-(trifluoromethyl)benzamide] |  | 3.53
O=C(Nc1cccc(-c2ncnc3sc(-c4ccncc4)cc23)c1)Nc1cccc(C(F)(F)F)c1 [Compound 41, N-[3-(6-pyridin-4-ylthieno[2,3-d]pyrimidin-4-yl)phenyl]-N′-[3-(trifluoromethyl)phenyl]urea] |  | 1.79
O=C(Nc1cccc(-c2ncnc3sc(-c4ccncc4)cc23)c1)c1cccc(C(F)(F)F)c1 [Compound 42, N-[3-(6-pyridin-4-ylthieno[2,3-d]pyrimidin-4-yl)phenyl]-3-(trifluoromethyl)benzamide] |  | 0.08
Cc1ccc(NC(=O)Nc2cccc(-c3ncnc4sc(-c5ccncc5)cc34)c2)cc1C [Compound 44, N-(3,4-dimethylphenyl)-N′-[3-(6-pyridin-4-ylthieno[2,3-d]pyrimidin-4-yl)phenyl]urea] |  | 1.53
O=C(Nc1cccc(Cl)c1)Nc1cccc(-c2ncnc3sc(-c4ccncc4)cc23)c1 [Compound 45, N-(3-chlorophenyl)-N′-[3-(6-pyridin-4-ylthieno[2,3-d]pyrimidin-4-yl)phenyl]urea] |  | 8.75
O=C(Nc1ccc(Cl)cc1)Nc1cccc(-c2ncnc3sc(-c4ccncc4)cc23)c1 [Compound 46, N-(4-chlorophenyl)-N′-[3-(6-pyridin-4-ylthieno[2,3-d]pyrimidin-4-yl)phenyl]urea] |  | 1.23
O=C(Nc1cccc(-c2ncnc3sc(C4=CCNCC4)cc23)c1)c1cccc(C(F)(F)F)c1 [Compound 67, N-{3-[6-(1,2,3,6-tetrahydropyridin-4-yl)thieno[2,3-d]pyrimidin-4-yl]phenyl}-3-(trifluoromethyl)benzamide] | 2.5 | 
CC(=O)Nc1ccc(-c2cc3c(-c4cccc(NC(=O)c5cccc(C(F)(F)F)c5)c4)ncnc3s2)cc1 [Compound 68, N-(3-{6-[4-(acetylamino)phenyl]thieno[2,3-d]pyrimidin-4-yl}phenyl)-3-(trifluoromethyl)benzamide] | 0.872 | 
CC(=O)Nc1cccc(-c2cc3c(-c4cccc(NC(=O)c5cccc(C(F)(F)F)c5)c4)ncnc3s2)c1 [Compound 72, N-(3-{6-[3-(acetylamino)phenyl]thieno[2,3-d]pyrimidin-4-yl}phenyl)-3-(trifluoromethyl)benzamide] | 2.07 | 
O=C(Nc1cccc(-c2ncnc3sc(-c4cccnc4)cc23)c1)c1cccc(C(F)(F)F)c1 [Compound 75, N-[3-(6-pyridin-3-ylthieno[2,3-d]pyrimidin-4-yl)phenyl]-3-(trifluoromethyl)benzamide] | 1.11 | 
N#Cc1ccc(-c2cc3c(-c4cccc(NC(=O)c5cccc(C(F)(F)F)c5)c4)ncnc3s2)cc1 [Compound 77, N-{3-[6-(4-cyanophenyl)thieno[2,3-d]pyrimidin-4-yl]phenyl}-3-(trifluoromethyl)benzamide] | 1.23 | 
O=C(Nc1cccc(-c2ncnc3sc(-c4ccc(Cl)cc4)cc23)c1)c1cccc(C(F)(F)F)c1 [Compound 79, N-{3-[6-(4-chlorophenyl)thieno[2,3-d]pyrimidin-4-yl]phenyl}-3-(trifluoromethyl)benzamide] | 4.67 | 

Next, values leading:

IC50 [1] [µM] | IC50 [µM] | SMILES
2.73 |  | CC(=O)c1ccc(-c2cc3c(-c4cccc(NC(=O)c5cccc(C(F)(F)F)c5)c4)ncnc3s2)cc1 [Compound 80, N-{3-[6-(4-acetylphenyl)thieno[2,3-d]pyrimidin-4-yl]phenyl}-3-(trifluoromethyl)benzamide]
3.2 |  | CC(=O)c1cccc(-c2cc3c(-c4cccc(NC(=O)c5cccc(C(F)(F)F)c5)c4)ncnc3s2)c1 [Compound 81, N-{3-[6-(3-acetylphenyl)thieno[2,3-d]pyrimidin-4-yl]phenyl}-3-(trifluoromethyl)benzamide]
0.73 |  | CNC(=O)c1cc(-c2cc3c(-c4cccc(NC(=O)c5cccc(C(F)(F)F)c5)c4)ncnc3s2)ccn1 [Compound 85, N-methyl-4-[4-(3-{[3-(trifluoromethyl)benzoyl]amino}phenyl)thieno[2,3-d]pyrimidin-6-yl]pyridine-2-carboxamide]
 | 0.144 | O=C(Nc1cccc(-c2ncnc3sc(-c4ccnc(NCCN5CCOCC5)c4)cc23)c1)c1cccc(C(F)(F)F)c1 [Compound 86, N-[3-(6-{2-[(2-morpholin-4-ylethyl)amino]pyridin-4-yl}thieno[2,3-d]pyrimidin-4-yl)phenyl]-3-(trifluoromethyl)benzamide]
0.158 |  | O=C(Nc1cccc(-c2ncnc3sc(-c4ccnc(NCCCn5ccnc5)c4)cc23)c1)c1cccc(C(F)(F)F)c1 [Compound 87, N-{3-[6-(2-{[3-(1H-imidazol-1-yl)propyl]amino}pyridin-4-yl)thieno[2,3-d]pyrimidin-4-yl]phenyl}-3-(trifluoromethyl)benzamide]
5.98 |  | N#Cc1cc2c(-c3cccc(NC(=O)c4cccc(C(F)(F)F)c4)c3)ncnc2s1 [Compound 88, N-[3-(6-cyanothieno[2,3-d]pyrimidin-4-yl)phenyl]-3-(trifluoromethyl)benzamide]
2.72 |  | NC(=O)c1cc2c(-c3cccc(NC(=O)c4cccc(C(F)(F)F)c4)c3)ncnc2s1 [Compound 89, 4-(3-{[3-(trifluoromethyl)benzoyl]amino}phenyl)thieno[2,3-d]pyrimidine-6-carboxamide]
 | 2.47 | N#Cc1ccccc1Cn1ccc2c(-c3cccc(NC(=O)c4cccc(C(F)(F)F)c4)c3)ncnc21 [Compound 94, N-{3-[7-(2-cyanobenzyl)-7H-pyrrolo[2,3-d]pyrimidin-4-yl]phenyl}-3-(trifluoromethyl)benzamide]
 | 1.02 | O=C(Nc1cccc(-c2ncnc3c2ccn3Cc2ccncc2)c1)c1cccc(C(F)(F)F)c1 [Compound 98, N-{3-[7-(pyridin-4-ylmethyl)-7H-pyrrolo[2,3-d]pyrimidin-4-yl]phenyl}-3-(trifluoromethyl)benzamide]
0.0345 |  | O=C(Nc1cccc(-c2ncnc3[nH]c(-c4ccncc4)cc23)c1)c1cccc(C(F)(F)F)c1 [Compound 101, N-[3-(6-pyridin-4-yl-7H-pyrrolo[2,3-d]pyrimidin-4-yl)phenyl]-3-(trifluoromethyl)benzamide]
 | 5.71 | COc1ccc(-n2ccc3c(-c4cccc(NC(=O)c5cccc(C(F)(F)F)c5)c4)ncnc32)cc1 [Compound 103, N-{3-[7-(4-methoxyphenyl)-7H-pyrrolo[2,3-d]pyrimidin-4-yl]phenyl}-3-(trifluoromethyl)benzamide]

Source: patent publication US20090118276A1, “THIENOPYRIMIDINES, THIENOPYRIDINES, AND PYRROLOPYRIMIDINES AS B-RAF INHIBITORS” (priority 2007, published 2009)
